Test system: 777334-354-R2-J4-PDC tumor spheroids with HUVEC/MSC, viability
Assay: Anticancer human tumor 777334-354-R2-J4-PDC patient-derived pancreatic adenocarcinoma cell line growth inhibition [GQUAD]
Settings: for IC50: curve of first compound; for viability, T/C: stronger effect = lower value
Procedure, shortened: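 Tumor cells were grown as complex spheroids with HUVEC endothelial cells and mesenchymal stem cells as stroma. G-quadruplex stabilizers were combined with targeted agents over half-log dilutions from near the clinical Cmax, or from 10 microM.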
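Note: spheroids exposed to compounds for 7 days before readout.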

## CC(C)n1c(=O)n(C)c2cnc3cc(F)c(-c4ccc(OCCCN5CCCCC5)nc4)cc3c21 + Cc1[nH]c2ccc(F)cc2c1-c1nc2c3cccnc3c3ncccc3c2[nH]1
Second compound 0.0316 µM
  IC50: > 10 µM
Second compound 0.1 µM
  IC50: > 10 µM
Second compound 0.316 µM
  IC50: > 10 µM
Second compound 1 µM
  IC50: > 10 µM
Second compound 3.16 µM
  IC50: < 0.0316 µM
Second compound 10 µM
  IC50: < 0.0316 µM
Second compound 0.0316 µM, first compound 0.0316 µM
  viability, T/C: 106%
Second compound 0.0316 µM, first compound 0.1 µM
  viability, T/C: 108%
Second compound 0.0316 µM, first compound 0.316 µM
  viability, T/C: 113%
Second compound 0.0316 µM, first compound 1 µM
  viability, T/C: 115%
Second compound 0.0316 µM, first compound 3.16 µM
  viability, T/C: 115%
Second compound 0.0316 µM, first compound 10 µM
  viability, T/C: 96%
Second compound 0.1 µM, first compound 0.0316 µM
  viability, T/C: 105%
Second compound 0.1 µM, first compound 0.1 µM
  viability, T/C: 89.5%
Second compound 0.1 µM, first compound 0.316 µM
  viability, T/C: 131%
Second compound 0.1 µM, first compound 1 µM
  viability, T/C: 103%
Second compound 0.1 µM, first compound 3.16 µM
  viability, T/C: 118%
Second compound 0.1 µM, first compound 10 µM
  viability, T/C: 98%
Second compound 0.316 µM, first compound 0.0316 µM
  viability, T/C: 101%
Second compound 0.316 µM, first compound 0.1 µM
  viability, T/C: 99.5%
Second compound 0.316 µM, first compound 0.316 µM
  viability, T/C: 90.3%
Second compound 0.316 µM, first compound 1 µM
  viability, T/C: 110%
Second compound 0.316 µM, first compound 3.16 µM
  viability, T/C: 99.1%
Second compound 0.316 µM, first compound 10 µM
  viability, T/C: 93.5%
Second compound 1 µM, first compound 0.0316 µM
  viability, T/C: 90.8%
Second compound 1 µM, first compound 0.1 µM
  viability, T/C: 84.7%
Second compound 1 µM, first compound 0.316 µM
  viability, T/C: 90.6%
Second compound 1 µM, first compound 1 µM
  viability, T/C: 101%
Second compound 1 µM, first compound 3.16 µM
  viability, T/C: 93.8%
Second compound 1 µM, first compound 10 µM
  viability, T/C: 70.8%
Second compound 3.16 µM, first compound 0.0316 µM
  viability, T/C: 30.8%
Second compound 3.16 µM, first compound 0.1 µM
  viability, T/C: 50.4%
Second compound 3.16 µM, first compound 0.316 µM
  viability, T/C: 40%
Second compound 3.16 µM, first compound 1 µM
  viability, T/C: 33.1%
Second compound 3.16 µM, first compound 3.16 µM
  viability, T/C: 28.5%
Second compound 3.16 µM, first compound 10 µM
  viability, T/C: 19.9%
Second compound 10 µM, first compound 0.0316 µM
  viability, T/C: 28.7%
Second compound 10 µM, first compound 0.1 µM
  viability, T/C: 25.2%
Second compound 10 µM, first compound 0.316 µM
  viability, T/C: 41.9%
Second compound 10 µM, first compound 1 µM
  viability, T/C: 28.4%
Second compound 10 µM, first compound 3.16 µM
  viability, T/C: 27.1%
Second compound 10 µM, first compound 10 µM
  viability, T/C: 13.5%
